From patent publication US8883778B2, “Cyclic inhibitors of 11 beta-hydroxysteroid dehydrogenase 1” (Vitae Pharmaceuticals, Inc., priority 2009, dated 2014)

Molecular target: 11β-HSD1 (Homo sapiens, UniProt P28845)
Experiment: Inhibition of a microsomal preparation of 11β-HSD1, scintillation proximity assay
Assay type: biochemical
Set-up: expressed in transfected cells; host or cells: CHO cells (microsomes)
Details: microsomes from CHO cells overexpressing human 11β-HSD1; for inhibition at 0.1 µM: at 100 nM
Procedure: All reactions were carried out at rt in 96 well clear flexible PET Microbeta plates (PerkinElmer). […] After a 10 minute pre-incubation, 50 μL of enzyme solution containing microsomes isolated from CHO cells overexpressing human 11β-HSD1 (10-20 μg/ml of total protein) was added, and the plates were incubated for 90 minutes at rt. The reaction was stopped by adding 50 μl of the SPA beads suspension containing 10 μM 18β-glycyrrhetinic acid, 5 mg/ml protein A coated YSi SPA beads (GE Healthcare) and 3.3 μg/ml of anti-cortisol antibody (East Coast Biologics) in Superblock buffer (Bio-Rad). The plates were shaken for 120 minutes at rt, and the SPA signal corresponding to [^3H]cortisol was measured on a Microbeta plate reader.

11β-HSD1, sequence (P28845 whole entry): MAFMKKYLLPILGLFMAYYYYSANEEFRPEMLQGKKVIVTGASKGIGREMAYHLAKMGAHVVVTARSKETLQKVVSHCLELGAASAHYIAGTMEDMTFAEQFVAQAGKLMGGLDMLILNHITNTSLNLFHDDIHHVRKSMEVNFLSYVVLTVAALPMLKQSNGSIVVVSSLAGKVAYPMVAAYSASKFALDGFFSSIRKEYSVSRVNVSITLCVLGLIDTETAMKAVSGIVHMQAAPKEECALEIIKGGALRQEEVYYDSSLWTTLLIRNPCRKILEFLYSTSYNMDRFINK

Row | SMILES | inhibition at 0.1 µM [%] | IC50 [nM]
1 | C[C@@H](c1ccc(C#CC2(O)CCCC2)cc1)N1CC[C@](CC(C)(C)O)(c2ccccc2)OC1=O [Example 2, (S)-6-(2-hydroxy-2-methylpropyl)-3-((S)-1-(4-((1-hydroxycyclopentyl)ethynyl)phenyl)ethyl)-6-phenyl-1,3-oxazinan-2-one] | 89.1 | 1.9
2 | C[C@@H](c1ccc(C#CC(C)(C)N2CCOC2=O)cc1)N1CC[C@](CC(C)(C)O)(c2ccccc2)OC1=O [Example 3, (S)-6-(2-hydroxy-2-methylpropyl)-3-((S)-1-(4-(3-methyl-3-(2-oxooxazolidin-3-yl)but-1-ynyl)phenyl)ethyl)-6-phenyl-1,3-oxazinan-2-one] | 99.8 | 1.1
3 | C[C@@H](c1ccc(C#CC(C)(C)C(=O)O)cc1)N1CC[C@](CC(C)(C)O)(c2ccccc2)OC1=O [Example 4, 4-(4-((S)-1-((S)-6-(2-hydroxy-2-methylpropyl)-2-oxo-6-phenyl-1,3-oxazinan-3-yl)ethyl)phenyl)-2,2-dimethylbut-3-ynoic acid] | 86 | 13.4
4 | C[C@@H](c1ccc(C#CC(C)(C)C(=O)N(C)C)cc1)N1CC[C@](CC(C)(C)O)(c2ccccc2)OC1=O [Example 5, 4-(4-((S)-1-((S)-6-(2-hydroxy-2-methylpropyl)-2-oxo-6-phenyl-1,3-oxazinan-3-yl)ethyl)phenyl)-N,N,2,2-tetramethylbut-3-ynamide] | 97 | 1.1
5 | C[C@@H](c1ccc(C#CC(C)(C)C(=O)NC2CC2)cc1)N1CC[C@](CC(C)(C)O)(c2ccccc2)OC1=O [Example 7, N-cyclopropyl-4-(4-((S)-1-((S)-6-(2-hydroxy-2-methylpropyl)-2-oxo-6-phenyl-1,3-oxazinan-3-yl)ethyl)phenyl)-2,2-dimethylbut-3-ynamide] | 93.5 | 5.2
6 | C[C@@H](c1ccc(C#CC(C)(C)NC(=O)C2CC2)cc1)N1CC[C@](CC(C)(C)O)(c2ccccc2)OC1=O [Example 8, N-(4-(4-((S)-1-((S)-6-(2-hydroxy-2-methylpropyl)-2-oxo-6-phenyl-1,3-oxazinan-3-yl)ethyl)phenyl)-2-methylbut-3-yn-2-yl)cyclopropanecarboxamide] | 92.2 | 7.5
7 | C[C@@H](c1ccc(C#Cc2ccccn2)cc1)N1CC[C@](CC(C)(C)O)(c2ccccc2)OC1=O [Example 9, (S)-6-(2-hydroxy-2-methylpropyl)-6-phenyl-3-((S)-1-(4-(pyridin-2-ylethynyl)phenyl)ethyl)-1,3-oxazinan-2-one] | 96.6 | 1
8 | C[C@@H](c1ccc(C#CC2(O)CCOCC2)cc1)N1CC[C@](CC(C)(C)O)(c2ccccc2)OC1=O [Example 10, (S)-6-(2-hydroxy-2-methylpropyl)-3-((S)-1-(4-((4-hydroxytetrahydro-2H-pyran-4-yl)ethynyl)phenyl)ethyl)-6-phenyl-1,3-oxazinan-2-one] | 84.7 | 6.9
9 | C[C@@H](c1ccc(C#CC2(O)CCN(C)CC2)cc1)N1CC[C@](CC(C)(C)O)(c2ccccc2)OC1=O [Example 11, (S)-3-((S)-1-(4-((4-hydroxy-1-methylpiperidin-4-yl)ethynyl)phenyl)ethyl)-6-(2-hydroxy-2-methylpropyl)-6-phenyl-1,3-oxazinan-2-one] | 50.5 | 86.3
10 | C[C@@H](c1ccc(C#CC(C)(C)N)cc1)N1CC[C@](CC(C)(C)O)(c2ccccc2)OC1=O [Example 12, (S)-3-((S)-1-(4-(3-amino-3-methylbut-1-ynyl)phenyl)ethyl)-6-(2-hydroxy-2-methylpropyl)-6-phenyl-1,3-oxazinan-2-one] | 63.7 | 53.4
11 | C[C@@H](c1ccc(C#CC2(N)CCCCC2)cc1)N1CC[C@](CC(C)(C)O)(c2ccccc2)OC1=O [Example 13, (S)-3-((S)-1-(4-((1-aminocyclohexyl)ethynyl)phenyl)ethyl)-6-(2-hydroxy-2-methylpropyl)-6-phenyl-1,3-oxazinan-2-one] | 82.5 | 12.4
12 | CC(=O)NC1(C#Cc2ccc([C@H](C)N3CC[C@](CC(C)(C)O)(c4ccccc4)OC3=O)cc2)CCCCC1 [Example 14, N-(1-((4-((S)-1-((S)-6-(2-hydroxy-2-methylpropyl)-2-oxo-6-phenyl-1,3-oxazinan-3-yl)ethyl)phenyl)ethynyl)cyclohexyl)acetamide] | 89.8 | 4.2
13 | COC(=O)NC1(C#Cc2ccc([C@H](C)N3CC[C@](CC(C)(C)O)(c4ccccc4)OC3=O)cc2)CCCCC1 [Example 15, Methyl 1-((4-((S)-1-((S)-6-(2-hydroxy-2-methylpropyl)-2-oxo-6-phenyl-1,3-oxazinan-3-yl)ethyl)phenyl)ethynyl)cyclohexylcarbamate] | 92.4 | 2.4
14 | C[C@@H](c1ccc(C#CC2(NC(N)=O)CCCCC2)cc1)N1CC[C@](CC(C)(C)O)(c2ccccc2)OC1=O [Example 16, 1-(1-((4-((S)-1-((S)-6-(2-hydroxy-2-methylpropyl)-2-oxo-6-phenyl-1,3-oxazinan-3-yl)ethyl)phenyl)ethynyl)cyclohexyl)urea] | 95.6 | 3.1
15 | CC(=O)NC(C)(C)C#Cc1ccc([C@H](C)N2CC[C@](CC(C)(C)O)(c3ccccc3)OC2=O)cc1 [Example 17, N-(4-(4-((S)-1-((S)-6-(2-hydroxy-2-methylpropyl)-2-oxo-6-phenyl-1,3-oxazinan-3-yl)ethyl)phenyl)-2-methylbut-3-yn-2-yl)acetamide] | 84.9 | 11.9
16 | COC(=O)NC(C)(C)C#Cc1ccc([C@H](C)N2CC[C@](CC(C)(C)O)(c3ccccc3)OC2=O)cc1 [Example 18, methyl 4-(4-((S)-1-((S)-6-(2-hydroxy-2-methylpropyl)-2-oxo-6-phenyl-1,3-oxazinan-3-yl)ethyl)phenyl)-2-methylbut-3-yn-2-ylcarbamate] | 94.5 | 3.7
17 | C[C@@H](c1ccc(C#CC(C)(C)NC(N)=O)cc1)N1CC[C@](CC(C)(C)O)(c2ccccc2)OC1=O [Example 19, 1-(4-(4-((S)-1-((S)-6-(2-hydroxy-2-methylpropyl)-2-oxo-6-phenyl-1,3-oxazinan-3-yl)ethyl)phenyl)-2-methylbut-3-yn-2-yl)urea] | 97.6 | 2.4
18 | CNC(=O)NC(C)(C)C#Cc1ccc([C@H](C)N2CC[C@](CC(C)(C)O)(c3ccccc3)OC2=O)cc1 [Example 20, 1-(4-(4-((S)-1-((S)-6-(2-hydroxy-2-methylpropyl)-2-oxo-6-phenyl-1,3-oxazinan-3-yl)ethyl)phenyl)-2-methylbut-3-yn-2-yl)-3-methylurea] | 92.2 | 4.2
19 | C[C@@H](c1ccc(C#CC(C)(C)NS(C)(=O)=O)cc1)N1CC[C@](CC(C)(C)O)(c2ccccc2)OC1=O [Example 21, N-(4-(4-((S)-1-((S)-6-(2-hydroxy-2-methylpropyl)-2-oxo-6-phenyl-1,3-oxazinan-3-yl)ethyl)phenyl)-2-methylbut-3-yn-2-yl)methanesulfonamide] | 93.7 | 3.4
20 | C=C(C)C[C@]1(c2ccccc2)CCN([C@@H](C)c2ccc(C#CC(C)(C)NS(C)(=O)=O)cc2)C(=O)O1 [Example 22, N-(2-methyl-4-(4-((S)-1-((R)-6-(2-methylallyl)-2-oxo-6-phenyl-1,3-oxazinan-3-yl)ethyl)phenyl)but-3-yn-2-yl)methanesulfonamide] | 93.6 | 1.8
